Experimental data: US8697883B2, “Cyclopenta[C]pyrrole-2-carboxylate derivatives, preparation thereof and therapeutic use thereof” (Sanofi, priority 2009, dated 2014)

Experiments:
[1] = molecular target: T1, enzyme FAAH (Fatty Acid Amide Hydrolase) (Mus musculus, UniProt O08914); assay: FAAH radioenzymatic test, hydrolysis of anandamide [ethanolamine 1-3H] (protocol 1); type: biochemical; conditions: mouse brain membrane homogenate, anandamide 10 μM, 20 min preincubation at 25° C., read-out: IC50 (concentration that inhibits 50% of the control enzymatic activity of FAAH)
T1 construct: The membrane homogenates are prepared extemporaneously by homogenizing the tissues; from tissue; host or cells: mouse brain minus cerebellum, membrane/brain homogenate
T1 sequence (O08914 1-579): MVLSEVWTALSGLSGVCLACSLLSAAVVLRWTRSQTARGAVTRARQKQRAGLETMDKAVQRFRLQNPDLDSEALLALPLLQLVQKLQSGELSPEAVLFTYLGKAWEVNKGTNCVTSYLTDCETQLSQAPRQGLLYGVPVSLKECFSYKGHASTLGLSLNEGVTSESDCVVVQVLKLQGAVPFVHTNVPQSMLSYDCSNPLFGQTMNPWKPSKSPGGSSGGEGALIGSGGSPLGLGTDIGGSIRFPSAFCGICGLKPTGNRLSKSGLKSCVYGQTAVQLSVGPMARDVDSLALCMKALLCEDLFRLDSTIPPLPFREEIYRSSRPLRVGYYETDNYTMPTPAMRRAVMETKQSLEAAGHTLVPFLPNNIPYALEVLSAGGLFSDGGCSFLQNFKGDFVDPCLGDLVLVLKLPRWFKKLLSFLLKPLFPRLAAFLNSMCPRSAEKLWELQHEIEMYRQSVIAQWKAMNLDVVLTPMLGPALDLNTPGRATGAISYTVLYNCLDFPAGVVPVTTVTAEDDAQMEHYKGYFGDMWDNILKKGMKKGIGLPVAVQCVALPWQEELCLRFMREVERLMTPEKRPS
Procedure: (§1) The compounds of the invention underwent pharmacological tests to determine their inhibitory effect on the enzyme FAAH (Fatty Acid Amide Hydrolase).
Thus, mouse brains (minus the cerebellum) are removed and stored at −80° C. The membrane homogenates are prepared extemporaneously by homogenizing the tissues using a Precellys® machine in reaction buffer (10 mM Tris-HCl, pH=8, 150 mM NaCl and 1 mM ethylenediaminetetraacetic acid (EDTA)). The enzymatic reaction is performed in 96-well Multiscreen filtration plates in a final volume of 70 μL. Reaction buffer supplemented with fatty acid-free bovine serum albumin (BSA, 1 mg/ml) is used for the enzymatic reaction and the dilution of the compounds and of the anandamide [ethanolamine 1-^3H]. The reaction buffer containing BSA (43 μL/well), the diluted test compounds at different concentrations (7 μL/well containing 1% DMSO) and the membrane preparation (10 μL/well, i.e. 200 μg of tissue per test) are successively added to the wells. After preincubation for 20 minutes of the compounds with the enzyme at 25° C., the reaction is started by adding anandamide [ethanolamine 1-^3H] (specific activity of 15-20 Ci/mmol) diluted with cold anandamide (10 μL/well, final concentration of 10 μM, 0.01 μCi per test). After incubation for 20 minutes at 25° C., the enzymatic reaction is stopped by adding a […] solution of active charcoal prepared in 1.5M NaCl buffer and 0.5 M HCl (50 μL/well). The mixture is stirred for 10 minutes and the aqueous phase containing the ethanolamine [1-^3H] is then recovered by filtration under vacuum and counted by liquid scintillation.

male OF1 mice = assay: Test of analgesia: PBQ-induced abdominal stretching; type: in vivo, mouse; conditions: 30 mg/kg p.o. at 120 minutes
Procedure: The in vivo activity of the compounds of the invention was evaluated in a test of analgesia.
Thus, the intraperitoneal (i.p.) administration of PBQ (phenylbenzoquinone, 2 mg/kg in 0.9% sodium chloride solution containing 5% ethanol) to male OF1 mice weighing 25 to 30 g causes abdominal stretching, on average 30 torsions or contractions within a period of 5 to 15 minutes after injection. The test compounds are administered orally (p.o.) or intraperitoneally (i.p.) suspended in Tween 80 at 0.5%, 60 minutes or 120 minutes before the administration of PBQ. Under these conditions, the compounds of the invention that are the most powerful reduce by 35% to 80% the number of stretches induced with PBQ, over a dose range of between 1 and 30 mg/kg.

[2] = molecular target: T1, enzyme FAAH (Fatty Acid Amide Hydrolase); assay: FAAH fluorescent enzymatic test, hydrolysis of AAMC (protocol 2); type: biochemical; conditions: mouse brain homogenate, AAMC 10 μM, 20 min preincubation at 25° C., 40 min at 37° C., read-out: IC50 (concentration that inhibits 50% of the control enzymatic activity of FAAH)
Procedure: as §1
Thus, mouse brains (minus the cerebellum) are withdrawn and stored at −80° C. The brain homogenates are prepared extemporaneously by homogenizing the tissues using a Precellys® machine in reaction buffer (10 mM Tris-HCl, pH=8, 150 mM NaCl and 1 mM ethylenediaminetetraacetic acid (EDTA)). The enzymatic reaction is performed in black polystyrene 384-well plates in a final volume of 50 μL. Reaction buffer supplemented with fatty acid-free bovine serum albumin (BSA, 1 mg/ml) is used for the enzymatic reaction, the dilution of the compounds and the dilution of the AAMC. Reaction buffer containing the BSA (25 μL/well), the diluted test compounds at different concentrations (5 μL/well containing 1% DMSO) and the membrane preparation (10 μL/well, i.e. 200 μg of tissue per test) are successively added to the wells. After preincubation for 20 minutes of the compounds with the enzyme at 25° C., the reaction is started by adding 10 μL of substrate per well (AAMC, final concentration of 10 μM). After incubation for 40 minutes at 37° C., the aminomethyl coumarin (AMC) produced is measured by fluorescent counting (Envision plate reader).

## O=C(OCc1csnn1)N1C[C@H]2C[C@H](Oc3ccc(Cl)cc3)C[C@H]2C1 [Compound 7, 1,2,3-thiadiazol-4-ylmethyl (3aR,5s,6aS)-5-(4-chlorophenoxy)hexahydrocyclopenta[c]pyrrole-2(1H)-carboxylate]
[1]
  IC50: 89 nM
other
  melting point: 122 to 124 °C

## CCOc1ccc2ccc(O[C@H]3C[C@@H]4CN(C(=O)OCc5nccs5)C[C@@H]4C3)cc2c1 [Compound 3, thiazol-2-ylmethyl (3aR,5s,6aS)-5-[(7-ethoxy-2-naphthyl)oxy]hexahydrocyclopenta[c]pyrrole-2(1H)-carboxylate]
[1]
  IC50: 3.5 nM

## NC(=O)c1cc(COC(=O)N2C[C@H]3C[C@H](Oc4ccc(Cl)cc4)C[C@H]3C2)on1 [Compound 12, (3-carbamoylisoxazol-5-yl)methyl (3aR,5s,6aS)-5-(4-chlorophenoxy)hexahydrocyclopenta[c]pyrrole-2(1H)-carboxylate]
[1]
  IC50: 19 nM

## CNC(=O)c1cc(COC(=O)N2C[C@H]3C[C@H](Oc4ccc(Cl)c(F)c4)C[C@H]3C2)on1 [Compound 35, [3-(methylcarbamoyl)isoxazol-5-yl]methyl (3aR,5s,6aS)-5-(4-chloro-3-fluorophenoxy)hexahydrocyclopenta[c]pyrrole-2(1H)-carboxylate]
Male OF1 mice
  reduction of the number of stretches induced with PBQ: 50%

## CCOc1ccc2ccc(OC3CC4CN(C(=O)OCc5nc(C(=O)NC)cs5)CC4C3)cc2c1 [Compound 23, [4-(methylcarbamoyl)thiazol-2-yl]methyl (3aR,5s,6aS)-5-[(7-ethoxy-2-naphthyl)oxy]hexahydrocyclopenta[c]pyrrole-2(1H)-carboxylate]
[1]
  IC50: 34 nM
other
  melting point: 149 to 151 °C

## CNC(=O)c1cc(COC(=O)N2C[C@H]3C[C@H](Oc4ccc(Cl)c5ccccc45)C[C@H]3C2)on1 [Compound 28, [3-(methylcarbamoyl)isoxazol-5-yl]methyl (3aR,5s,6aS)-5-[(4-chloro-1-naphthyl)oxy]hexahydrocyclopenta[c]pyrrole-2(1H)-carboxylate]
[1]
  IC50: 12 nM
other
  melting point: 131 to 133 °C

## CNC(=O)c1cc(COC(=O)N2C[C@H]3C[C@H](Oc4ccc(-c5ccc(F)cc5)cc4)C[C@H]3C2)on1 [Compound 45, (3-methylcarbamoylisoxazol-5-yl)methyl (3aR,5s,6aS)-5-[(4′-fluorobiphenyl-4-yl)oxy]hexahydrocyclopenta[c]-pyrrole-2(1H)-carboxylate]
[2]
  IC50: 0.47 nM
other
  melting point: 154 to 156 °C

## NC(=O)c1cc(COC(=O)N2C[C@H]3C[C@H](Oc4ccc(Cl)c(F)c4)C[C@H]3C2)on1 [Compound 34, (3-carbamoylisoxazol-5-yl)methyl (3aR,5s,6aS)-5-(4-chloro-3-fluorophenoxy)hexahydrocyclopenta[c]pyrrole-2(1H)-carboxylate]
[1]
  IC50: 3.2 nM
other
  melting point: 100 to 102 °C

## CN(C)C(=O)c1cc(COC(=O)N2C[C@H]3C[C@H](Oc4ccc(F)cc4)C[C@H]3C2)on1 [Compound 44, (3-dimethylcarbamoylisoxazol-5-yl)methyl (3aR,5s,6aS)-5-(4-fluorophenoxy)hexahydrocyclopenta[c]pyrrole-2(1H)-carboxylate]
[2]
  IC50: 7.4 nM

## CCOc1ccc2ccc(O[C@H]3C[C@@H]4CN(C(=O)OCc5cc(C(N)=O)no5)C[C@@H]4C3)cc2c1 [Compound 24, (3-carbamoylisoxazol-5-yl)methyl (3aR,5s,6aS)-5-[(7-ethoxy-2-naphthyl)oxy]hexahydrocyclopenta[c]pyrrole-2(1H)-carboxylate]
Male OF1 mice
  reduction of the number of stretches induced with PBQ: 50%
